# From patent US9549906B2, “Compositions and methods for treatment of ocular inflammation and/or pain” (priority 2013, dated 2017)
# Entries after “also recorded” stand apart in the source; their conditions may differ.
# Assays:
# [1] = system: endotoxin-induced uveitis (EIU) model; assay: Endotoxin-induced uveitis (EIU) in rats, intravital microscopy of leukocyte-endothelial adhesion; assay type: in vivo, male Lewis rats
# Protocol: The endotoxin-induced uveitis (EIU) model is a widely used animal model of human bacterially-derived uveitis, involving inflammation of the uveal tract. The uveal tract comprises the middle layer of the eye, including the iris, ciliary body and […].
# EIU was induced in male Lewis rats by intravitreal injection of 100 ng of lipopolysaccharide (LPS, Escherichia coli) in saline. Treatments of the cannabinoid 2 receptor (CB2R) agonist, HU-433 were administered, in the presence and absence of the selective antagonist, AM630. Cannabinoid treatments involved intravenous (i.v.) HU-433 (0.001-1 mg/kg), AM630 (2.5 mg/kg i.v.) and AM630+HU-433, administered 15 minutes after intravitreal injection of LPS. Intravital microscopy (IVM) was used to observe leukocyte-endothelial adhesion each hour after induction of EIU for a duration of 6 hours.
# Data in FIG. 1 was collected from experiments using an animal model of ocular inflammation called endotoxin-induced uveitis. […] The level of inflammation is quantified by counting the number of adherent leukocytes in the iris microcirculation. Leukocytes must adhere to the microvasculature for more than 30 s (measured as adherent leukocytes per mm^2). Imaging was conducted in a minimum of 4 quadrants within the eye, 4 vessels each quadrant, 6 hours after inflammation was induced.
# The strain of animals chosen for these experiments was based on preliminary testing conducted and published literature (see, for example: Toguri et al., 2014). The strain of mice chosen was BALB/c and Lewis rats were used. Animals were anesthetised prior to induction of uveitis. Mice were anesthetized with 5% isoflurane in 100% oxygen. Rats were anesthetized with 65 mg·kg^−1 of sodium pentobarbital. Depth of anesthesia was monitored via toe pinch test. The head of the animal was immobilized, and the sclera of the left eye was punctured with a 30-gauge needle at the dorsonasal quadrant at approximately the level of the equator. Mice received a total of 250 ng of LPS (E. coli 026:B6; Sigma-Aldrich, Oakville, ON, Canada) in 2 μl of sterile 0.9% saline. Rats received a total of 100 ng of LPS in 5 μl of sterile 0.9% saline. Intravitreal injections were made under microscopic control with a Hamilton syringe (Hamilton Company, Reno, Nev., USA), with a 30 G1/6 needle. To avoid touching the lens or causing any damage to the eye, the tip of the needle was directed towards the posterior pole and only the bevelled tip (2-3 mm) entered the vitreal cavity. The needle was held in place after injection for 5 seconds to avoid leakage of the LPS from the site of injection (sclerostomy). Sclerostomy was closed by tissue adhesive to prevent any leakage. Animals with bleeding or swelling post injection were excluded from the study.
# [2] = system: corneal hypersensitivity to capsaicin; assay: Corneal hyperalgesia model (silver nitrate cauterization), blinks to topical 1 μM capsaicin; assay type: in vivo, murine
# Excerpt: The chemical cauterization model of corneal inflammation and hyperalgesia is an established model to look at corneal sensitization and pain. Chemical cauterization of the murine cornea using topical silver nitrate produces non-specific inflammation followed by chronic behavioral sensitization to subsequent chemical stimuli (modified from Wenk & Honda, 2003).
# The corneal reflex blink test provides a behavioral assessment of corneal sensitization and hyperalgesia (decreased pain threshold). The hyperalgesia (defined as increased responsiveness to painful stimuli) is gauged by quantifying the number and frequency of a protective blinking response in the treated eye (stimulus-induced blinking) relative to control non-sensitized eyes (Wenk and Honda 2003). Anti-inflammatory agents and agents that act at targets on nociceptive nerves can reduce development of corneal sensitization and hyperalgesic activity (reduced protective blinking response in response to noxious irritant).
# Using a model characterized by Wenk & Honda, 2003, chemical cauterization using silver nitrate application to the cornea was used to create a corneal hypersensitivity model. Hypersensitivity was determined by assessing blinks to an ocular topical application of 1 μM capsaicin. The blink response is one measure of the level of corneal hyperalgesia. Increased blinking in response to capsaicin in a cauterized eye indicates a higher level of pain (FIG. 9).
# In a model of corneal hyperalgesia, chemical cauterization of the cornea produces corneal epithelial damage, corneal edema and inflammation. […] The effect of repeated dosing with the CB2 allosteric modulator, CBD-DMH, or the cannabinoid Δ^9THC that acts as an agonist at CB1 and CB2 receptors, was tested to determine if these agents could prevent the development of hyperalgesia. Animals were videoed before and after capsaicin administration using a handheld device and video images were analyzed off-line by an observer blinded to the treatment. […]
# [3] = cited from earlier work; for stability: acidic solutions, heat, air and light
# CB2 [4] = molecular target: T1, CB2 (Homo sapiens, UniProt P34972); assay: In-Cell western, PLCβ3 phosphorylation (Gαq) in HEK 293A cells transfected with hCB2; assay type: cell-based; design: expressed in transfected cells; settings: HEK293-A; percentage of the maximal response to the agonist CP 55,940; read-out: Emax (%) ± SEM, PLCβ3 (Gαq)
# T1 sequence (P34972 whole entry): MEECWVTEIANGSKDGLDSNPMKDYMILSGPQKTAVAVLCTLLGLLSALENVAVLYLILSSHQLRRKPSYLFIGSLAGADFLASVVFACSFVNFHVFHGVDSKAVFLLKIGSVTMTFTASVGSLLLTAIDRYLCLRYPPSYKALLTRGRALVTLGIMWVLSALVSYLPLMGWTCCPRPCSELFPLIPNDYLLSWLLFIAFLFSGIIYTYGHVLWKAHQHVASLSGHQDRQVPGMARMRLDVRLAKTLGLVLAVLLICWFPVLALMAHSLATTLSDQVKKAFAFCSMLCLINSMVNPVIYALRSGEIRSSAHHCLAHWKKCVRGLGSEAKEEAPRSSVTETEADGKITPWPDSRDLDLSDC
# Protocol: HEK cells were maintained at 37° C., 5% CO2 in Dulbecco's Modified Eagle's Medium (DMEM) supplemented with 10% Fetal Bovine Serum (FBS) and 10^4 U·mL^−1 Pen/Strep.
# For In-Cell™ western analyses, cells were fixed for 10 min at room temperature with 4% paraformaldehyde and washed three times with 0.1 M PBS for 5 min each. Cells were incubated with blocking solution (0.1 M PBS, 5% normal goat serum, 0.3% TritonX-100, in dH2O) for 1 h at room temperature. Cells were treated with primary antibody diluted in antibody dilution buffer [0.1 M PBS, 1% (w/v) BSA, 0.3% TritonX-100, in dH2O] overnight at 4° C. Primary antibody solutions were: pERK1/2(Tyr205/185) (1:200), ERK1/2 (1:200), pPLCβ3(S537) (1:500), PLCβ3 (1:1000), or β-actin (1:2000; Santa Cruz Biotechnology). Cells were washed three times with 0.1 M PBS for 5 min each. Cells were then incubated in IR^CW800dye (1:500; Rockland Immunochemicals, Gilbertsville, Pa., USA) for 1 h at room temperature. Cells were washed three times with 0.1 M PBS for 5 min each. Cells were allowed to air-dry overnight.
# In-Cell™ data were collected using the Odyssey Imaging system and software (version 3.0; Li-Cor, Lincoln, Nebr., USA).
# Goodness of fit to non-linear regression models was tested in GraphPad (v. 5.0, Prism). […]
# CB2 [5] = molecular target: T1, CB2; assay: In vitro CB2-dependent G protein signalling, overall conclusion (ERK, PLCβ3, cAMP); assay type: cell-based; design: expressed in transfected cells; host or cells: HEK 293A cells (transient transfection)
# Protocol: Following 30 min treatment cells were lysed and cAMP activity was measured at 405 nm (RLU, relative light units). Concentration-response curves were fit using non-linear regression analysis (GraphPad Prism, version 5.0).
# [6] = system: endotoxin-induced uveitis (EIU) model; assay: LPS-induced uveitis (EIU) in mice, intravital microscopy of adherent leukocytes; assay type: in vivo, BALB/c Mice; settings: CBD-DMH 10 mg/kg i.v. once right after intravitreal LPS; IVM at 5 hours
# Protocol: Two different EIU experimental groups were examined in BALB/c Mice: • Group (A): Intravital microscopy (IVM) at 5 hours after intravitreal injection of saline (control) • Group (B): IVM at 5 hours after induction of EIU and i.v. administration of drug vehicle control (1 time, 0.2 mL 30% ethanol in saline right after intravitreal injection) • Group (C): IVM at 5 hours after induction of EIU and i.v. administration of cannabinoid (1 time, 0.2 mL 10 mg/kg CBD-DMH right after intravitreal injection).
# The strain of animals chosen for these experiments was based on preliminary testing conducted and published literature (see, for example: Toguri et al., 2014). […] Depth of anesthesia was monitored via toe pinch test. […]
# The technique of intravital microscopy (IVM) was used for in vivo investigation of leukocyte recruitment. The intravital fluorescence video microscope was focused on the iridial microcirculation, which allowed for imaging of the leukocyte-endothelial interactions. […] In each video, leukocyte recruitment was observed and recorded for 30 seconds each. […]
# Several videos of each quadrant were recorded for 30 seconds. Leukocyte adhesion was the parameter analyzed. […] The number of adherent leukocytes within each vessel segment was calculated by measuring the diameter and length of vessel segment studied, assuming a cylindrical geometry of blood vessel. […]
# CB2 [7] = molecular target: T1, CB2; settings: cited from earlier work
# dispase-induced PVR = assay: Dispase model of proliferative vitreoretinopathy (PVR): clinical score, histopathology, Iba1 microglia; settings: 10 mg/kg i.p. daily for 7 days
# [8] = system: experimental models of sepsis; assay: Experimental models of sepsis; assay type: in vivo
compound,measurement,setting,value
"COc1ccc(C(=O)c2c(C)n(CCN3CCOCC3)c3cc(I)ccc23)cc1 [AM630, reference compound]","number of adherent leukocytes to the microvasculature, antagonist alone","[1]; AM630 2.5 mg/kg i.v. alone, p<0.01",significant increase
same,effect of CB2R antagonist pre-treatment on the agonist's decrease in leukocyte adhesion,[1]; AM630 2.5 mg/kg i.v. prior to CB2R agonist in EIU,abolished
"C=C1CC/C=C(\C)CC[C@@H]2[C@@H]1CC2(C)C [Beta-C, β-caryophyllene]",corneal hyperalgesia,"[2]; Beta-C, dose not given",appeared to also produce a reduction in hyperalgesia
"C=C(C)[C@@H]1CCC(C)=C[C@H]1c1c(O)cc(CCCCC)cc1O [CBD, cannabidiol]",stability,[3],"unstable in acidic solutions and when exposed to heat, air and light"
same,water solubility,[3],poorly water-soluble
same,Emax,CB2 [4],51.7 ± 7.04%
same,mode of action on CB2-dependent G protein signalling,CB2 [5],partial agonist
"C=C(C)[C@@H]1CCC(C)=C[C@H]1c1c(O)cc(C(C)(C)CCCCCC)cc1O [CBD-DMH, cannabidiol-dimethylheptyl]",number of adherent leukocytes,[6],decrease in number of adherent leukocytes
same,mean number of blinks for 1 minute to 1 μM capsaicin,"[2]; 6 hours post corneal insult, 3 doses topical 5% CBD-DMH, 1-way ANOVA p<0.05",statistically significant decrease in blinks compared to untreated and vehicle treated eyes
same,corneal hypersensitivity (blinks over 1 minute to 1 μM capsaicin),"[2]; unilateral cauterized eye, 3 doses ocular topical 5% CBD-DMH",eliminates this hypersensitivity; also recorded: reduces hypersensitivity in a comparable matter to ocular topical NSAID; also recorded: eliminated hypersensitivity to capsaicin
same,potency relative to CBD,CB2 [7]; analgesic and anti-inflammatory effects in animal models,more than 10 fold
same,psychoactivity,CB2 [7],non-psychotropic
same,activation of CB2 in the absence of the orthosteric agonist CP55940,CB2 [5],does not activate CB2
same,effect on potency and efficacy of the orthosteric CB2 agonist CP55940,CB2 [5],enhances the potency and efficacy
same,mode of action on CB2-dependent G protein signalling,CB2 [5],positive allosteric modulator
same,clinical score of PVR (scale 0-5),dispase-induced PVR,significantly decreased
same,histological score of PVR (scale 0-4),dispase-induced PVR,significantly decreased
CCCCCCC(C)(C)c1cc(OC)c(C2C=C(CO)C3CC2C3(C)C)c(OC)c1 (stereo not shown) [HU-433],number of adherent leukocytes in the iris microcirculation,"[1]; HU-433 0.1 mg/kg i.v., 6 hours after intravitreal LPS, 0.1 mg/kg",significantly (p<0.05) reduce; also recorded: fewer adherent leukocytes
same,leukocyte-endothelial adhesion (inflammation),"[1]; HU-433 i.v. 0.01 and 0.1 mg/kg, 6 hours after induction of EIU",significantly (p<0.01) reduced
same,local release of inflammatory mediators,[1]; acute EIU,decreases local release of inflammatory mediators
same,potency in reducing ocular inflammation relative to HU-308,[1]; experimental uveitis,more potent than HU-308
same,potency in mitigating inflammation relative to HU-308,[8],more potent than HU-308
same,psychoactivity,CB2 [7],no psychoactivity
same,potency relative to HU-308,CB2 [7]; in vitro and in vivo systems,2-3 orders of magnitude
CCCCCc1cc(O)c2c(c1)OC(C)(C)[C@@H]1CCC(C)=C[C@@H]21 [THC],stability,[3],"unstable in acidic solutions and when exposed to heat, air and light"
